Experimental data: patent US20060293307A1, “Oxazolidinone derivatives as antimicrobials” (priority 2002, published 2006)
≈ marks a conversion by molar mass, not a printed value. Like-named read-outs stand apart in the source and are kept apart here.

How the values were obtained:
M. tuberculosis PC [1] = experiment: MIC against M. tuberculosis strains, agar dilution; type: cell-based, Mycobacterium tuberculosis; details: S. No. 18 Mt-, Middle Brook 7H10 + OADC, 37° C., 14-21 days
M. intracellulare B-78/3 = experiment: MIC against MAC strains, agar dilution; type: cell-based; details: S. No. 09 Mi-4, M. intracellulare B-78/3; Middle Brook 7H10 + OADC, 37° C., 14-21 days
M. tuberculosis SGPGI = experiment: MIC against M. tuberculosis strains, agar dilution; type: cell-based, Mycobacterium tuberculosis; details: S. No. 07 Mt-, Middle Brook 7H10 + OADC, 37° C., 14-21 days
M. tuberculosis PC [2] = experiment: MIC against M. tuberculosis strains, agar dilution; type: cell-based, Mycobacterium tuberculosis; details: S. No. 17 Mt-, Middle Brook 7H10 + OADC, 37° C., 14-21 days
M. avium AIIMS = experiment: MIC against MAC strains, agar dilution; type: cell-based, Mycobacterium avium; details: S. No. 04 Ma-4, M. avium AIIMS; Middle Brook 7H10 + OADC, 37° C., 14-21 days
[3] = system: M. avium intracellulare 926/98; experiment: MIC against MAC strains, agar dilution; type: cell-based; details: S. No. 14 Mai-6, M. avium intracellulare 926/98; Middle Brook 7H10 + OADC, 37° C., 14-21 days
M. intracellulare F21/12 = experiment: MIC against MAC strains, agar dilution; type: cell-based; details: S. No. 08 Mi-3, M. intracellulare F21/12; Middle Brook 7H10 + OADC, 37° C., 14-21 days
H. influenzae 23 = experiment: MIC against Haemophilus strains; type: cell-based
S. pneumoniae CS 1687 = experiment: MIC, agar incorporation method; type: cell-based, Streptococcus pneumoniae
S. pneumoniae AB 29 = experiment: MIC, agar incorporation method; type: cell-based, Streptococcus pneumoniae
[4] = system: S. epidermidis (MRSE) 23760; experiment: MIC, agar incorporation method; type: cell-based, Staphylococcus epidermidis
S. pneumoniae AB-3 = experiment: MIC, agar incorporation method; type: cell-based, Streptococcus pneumoniae
Salmonella 205 = experiment: MIC, agar incorporation method; type: cell-based; details: S. No. 26, Salmonella 205
Method: The compounds of the invention display antibacterial activity when tested by the agar incorporation method. The following minimum inhibitory concentrations (μg/ml) were obtained for representative compounds of the invention which are given below in the following tables.
Briefly, the compounds were dissolved in DMSO and doubling dilution of the compounds were incorporated into Meer Hilton agar before solidification. Inoculum was prepared by suspending 4 to 5 colonies into 5 ml of normal saline solution and adjusting the turbidity to 0.5 Macfarland turbidity standard tables (1.5×10^8 CFU/ml), after appropriate dilutions, 10^4 CFU/spot was transfered into the surface of dried plate and incubated for 18 hours (24 hours for MRSN studies). The concentration showing no growth of the inoculated culture was recorded as the MIC. Appropriate ATCC standard strains were simultaneously tested and result recorded only when the MIC's against standard antibiotics were within the acceptable range.

E. faecium 6A (VRE) = experiment: MIC, agar incorporation method; type: cell-based, Enterococcus faecium
[5] = system: S. aureus (MRSA 33) Cipro R; experiment: MIC, agar incorporation method; type: cell-based, Staphylococcus aureus
S. pneumoniae AB 14 = experiment: MIC, agar incorporation method; type: cell-based, Streptococcus pneumoniae
S. pneumoniae AB 25 = experiment: MIC, agar incorporation method; type: cell-based, Streptococcus pneumoniae
S. pyogenes 20361 = experiment: MIC, agar incorporation method; type: cell-based, Streptococcus pyogenes
K. oxytoca 49131 = experiment: MIC, agar incorporation method; type: cell-based
S pneumoniae 1294. = experiment: MIC, agar incorporation method; type: cell-based, Streptococcus pneumoniae
E. faecalis SP 346 (VRE) = experiment: MIC, agar incorporation method; type: cell-based
P. aeruginosa ATCC 27853 = experiment: MIC, agar incorporation method; type: cell-based
S. pneumoniae AB 22 = experiment: MIC, agar incorporation method; type: cell-based, Streptococcus pneumoniae
S. pneumoniae AB 10 = experiment: MIC, agar incorporation method; type: cell-based, Streptococcus pneumoniae
S. aureus ATCC 25923 = experiment: MIC, agar incorporation method; type: cell-based, Staphylococcus aureus
S. pneumoniae AB 34 = experiment: MIC, agar incorporation method; type: cell-based, Streptococcus pneumoniae
S. pneumoniae CS1221 = experiment: MIC, agar incorporation method; type: cell-based, Streptococcus pneumoniae
S. pneumoniae AB 31 = experiment: MIC, agar incorporation method; type: cell-based, Streptococcus pneumoniae

SMILES: CC[C@H]1OC(=O)[C@H](C)[C@@H](O[C@H]2C[C@@](C)(OC)[C@@H](O)[C@H](C)O2)[C@H](C)[C@@H](O[C@@H]2O[C@H](C)C[C@H](N(C)C)[C@H]2O)[C@](C)(OC)C[C@@H](C)C(=O)[C@H](C)[C@@H](O)[C@]1(C)O [CLA]
- MIC (M. tuberculosis PC [1]): 32 µg/mL
- MIC (M. intracellulare B-78/3): 1.0 µg/mL
- MIC (M. tuberculosis SGPGI): 16 µg/mL
- MIC (M. tuberculosis PC [2]): 4.0 µg/mL
- MIC (M. avium AIIMS): 1.0 µg/mL
- MIC [3]: 1.0 µg/mL
- MIC (M. intracellulare F21/12): 1.0 µg/mL

SMILES: C[C@H](Cl)C(=O)NCC1CN(c2ccc(N3CCN(c4ccc([N+](=O)[O-])s4)CC3)c(F)c2)C(=O)O1 (stereo partly drawn) [Compound No. 7, (S)—N-[[3-[3-Fluoro-4-[N-1-{4-(5-nitro-2-thienyl)piperazinyl}]-phenyl]-2-oxo-5-oxazolidinyl]-methyl]-2-chloro-propionamide]
- MIC (H. influenzae 23; s. No. 5, H. influenzae 23): >16 µg/mL
- MIC (S. pneumoniae CS 1687; S. No. 44, S. pneumoniae CS 1687): 2 µg/mL (≈ 3.91 µM)
- MIC (S. pneumoniae AB 29; S. No. 46, S. pneumoniae AB 29): 0.5 µg/mL (≈ 0.977 µM)
- MIC ([4]; S. No. 11, S. epidermidis (MRSE) 23760): 4 µg/mL (≈ 7.81 µM)
- MIC (S. pneumoniae AB-3; S. No. 32, S. pneumoniae AB-3): 0.5 µg/mL (≈ 0.977 µM)
- MIC (Salmonella 205): >8 µg/mL
- MIC (E. faecium 6A (VRE); S. No. 21, E. faecium 6A (VRE)): >8 µg/mL
- MIC ([5]; S. No. 7, S. aureus (MRSA 33) Cipro R): >8 µg/mL
- MIC (S. pneumoniae AB 14; S. No. 37, S. pneumoniae AB 14): 1 µg/mL (≈ 1.95 µM)
- MIC (S. pneumoniae AB 25; S. No. 45, S. pneumoniae AB 25): 0.5 µg/mL (≈ 0.977 µM)
- MIC (S. pyogenes 20361; S. No. 53, S. pyogenes 20361): 2 µg/mL (≈ 3.91 µM)
- MIC (K. oxytoca 49131; S. No. 27, K. oxytoca 49131): >8 µg/mL
- MIC (S pneumoniae 1294.; S. No. 55, S pneumoniae 1294.): 2 µg/mL (≈ 3.91 µM)
- MIC (E. faecalis SP 346 (VRE); S. No. 20, E. faecalis SP 346 (VRE)): >8 µg/mL
- MIC (P. aeruginosa ATCC 27853; S. No. 28, P. aeruginosa ATCC 27853): >8 µg/mL
- MIC (S. pneumoniae AB 22; S. No. 42, S. pneumoniae AB 22): 1 µg/mL (≈ 1.95 µM)
- MIC (S. pneumoniae AB 10; S. No. 35, S. pneumoniae AB 10): 0.5 µg/mL (≈ 0.977 µM)
- MIC (S. aureus ATCC 25923; S. No. 1, organism cell empty): >8 µg/mL
- MIC (S. pneumoniae AB 34; S. No. 49, S. pneumoniae AB 34): 4 µg/mL (≈ 7.81 µM)
- MIC (S. pneumoniae CS1221; S. No. 34, S. pneumoniae CS1221): 0.5 µg/mL (≈ 0.977 µM)
- MIC (S. pneumoniae AB 31; S. No. 36, S. pneumoniae AB 31): 1 µg/mL (≈ 1.95 µM)

SMILES: O=C(NC[C@H]1CN(c2ccc(N3CCN(c4ccc([N+](=O)[O-])s4)CC3)c(F)c2)C(=O)O1)C(F)F [Compound No. 8, (S)—N-[[3-[3-Fluoro-4-[4-(5-nitro-2-thienyl)-1-piperazinyl]phenyl]-2-oxo-5-oxazolidinyl]methyl]difluoroacetamide]
- MIC (H. influenzae 23; Haemophilus influenzae, 23): > 16 µg/mL
- MIC (S. pneumoniae CS 1687; Streptococcus pneumoniae, CS1687): 0.25 µg/mL (≈ 0.501 µM)
- MIC (S. pneumoniae AB 29; Streptococcus pneumoniae, AB29): 0.25 µg/mL (≈ 0.501 µM)
- MIC ([4]; Staphylococcus epidermidis, MRSE): 0.25 µg/mL (≈ 0.501 µM)
- MIC (S. pneumoniae AB-3; Streptococcus pneumoniae, AB3): 0.125 µg/mL (≈ 0.25 µM)
- MIC (Salmonella 205; read-out: MIC): > 8 µg/mL
- MIC (E. faecium 6A (VRE); Enterococcus faecium, VRE): 1 µg/mL (≈ 2 µM)
- MIC ([5]; Staphylococcus aureus, MRSA): 2 µg/mL (≈ 4 µM)
- MIC (S. pneumoniae AB 14; Streptococcus pneumoniae, AB14): 0.25 µg/mL (≈ 0.501 µM)
- MIC (S. pneumoniae AB 25; Streptococcus pneumoniae, AB25): 0.25 µg/mL (≈ 0.501 µM)
- MIC (S. pyogenes 20361; Streptococcus pyogenes, 20361): 0.25 µg/mL (≈ 0.501 µM)
- MIC (K. oxytoca 49131; Klebsiella oxytoca, 49131): > 8 µg/mL
- MIC (S pneumoniae 1294.; Streptococcus pneumoniae, 1294.): 0.25 µg/mL (≈ 0.501 µM)
- MIC (E. faecalis SP 346 (VRE); Enterococcus faecalis, VRE): 0.25 µg/mL (≈ 0.501 µM)
- MIC (P. aeruginosa ATCC 27853; Pseudomonas aeruginosa, ATCC27853): > 8 µg/mL
- MIC (S. pneumoniae AB 22; Streptococcus pneumoniae, AB22): 0.25 µg/mL (≈ 0.501 µM)
- MIC (S. pneumoniae AB 10; Streptococcus pneumoniae, AB10): 0.125 µg/mL (≈ 0.25 µM)
- MIC (S. aureus ATCC 25923; Staphylococcus aureus, ATCC25923): 2 µg/mL (≈ 4 µM)
- MIC (S. pneumoniae AB 34; Streptococcus pneumoniae, AB34): 0.5 µg/mL (≈ 1 µM)
- MIC (S. pneumoniae CS1221; Streptococcus pneumoniae, CS1221): 0.125 µg/mL (≈ 0.25 µM)
- MIC (S. pneumoniae AB 31; Streptococcus pneumoniae, AB31): 0.25 µg/mL (≈ 0.501 µM)

SMILES: CCc1cc(C(N)=S)ccn1 [ETH]
- MIC (M. tuberculosis PC [1]): 1.0 µg/mL
- MIC (M. intracellulare B-78/3): 4.0 µg/mL
- MIC (M. tuberculosis SGPGI): >32 µg/mL
- MIC (M. tuberculosis PC [2]): 32 µg/mL
- MIC (M. avium AIIMS): 16 µg/mL
- MIC [3]: 16 µg/mL
- MIC (M. intracellulare F21/12): 8.0 µg/mL
